Key:
[1] = test system: diamondback moth (Plutella xylostella); experiment: Insecticidal effect on diamondback moth (Test Example 1); assay type: in vivo; conditions: for Insecticidal effect, Test Example 1 / Insecticidal effect (Test Example 1), judged from mortality: diamondback moth; for Insecticidal effect on diamondback moth (Test Example 1), judged grade: mortality judged according to the criterion shown in Test Example 1; for Insecticidal effect (Test Example 1), judged from mortality: judged by the criterion of Test Example 1
Method in brief: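 Triplicate groups of 10 insects were scored: six days after immersion of oviposited Chinese cabbage seedlings and holding at 25 °C post air-drying, hatched larvae were counted. Mortality derived from these counts and insecticidal effect judged by a set criterion.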

[2] = test system: rice leafroller (Cnaphalocrocis medinalis); experiment: Insecticidal effect on rice leafroller (Test Example 3); assay type: in vivo; conditions: 500 ppm, 25° C., humidity 70%; for Insecticidal effect, Test Example 3: rice lamina immersed; for Insecticidal effect, Test Example 3 / Insecticidal effect on rice leafroller (Test Example 3), judged grade: four days after inoculation; for Insecticidal effect on rice leafroller (Test Example 3), judged grade / Insecticidal effect (Test Example 3), judged from mortality: rice lamina dip; for Insecticidal effect on rice leafroller (Test Example 3), judged grade: third-instar larvae; for Insecticidal effect (Test Example 3), judged from mortality: 4 days after inoculation
Method in brief: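 Insecticidal effect is judged by a predefined criterion from dead/alive counts four days after infesting air-dried lamina with third-instar larvae, kept on moistened filter paper at 25° C, 70% humidity.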

[3] = mortality judged by criterion of Test Example 1
[4] = rice leafroller third-instar larvae
[5] = judged by the mortality criterion of Test Example 1
[6] = third-instar larvae of rice leafroller

## Cc1cccc(CNC(=O)c2c(Cl)cccc2C(=O)Nc2ccc(C(F)(F)C(F)(F)F)cc2C)c1 [compound 1339]
[1]; [3]
  Insecticidal effect, Test Example 1: A (100)
[2]; [4]
  Insecticidal effect, Test Example 3: A (100)

## Cc1cc(Cl)ccc1NC(=O)c1c(Cl)ccc(Cl)c1C(=O)NC(C)C [compound 259]
[1]; [5]
  Insecticidal effect, Test Example 1: A (100)
[2]; [6]
  Insecticidal effect, Test Example 3: D (79-50)

## CC(C)NC(=O)c1ccccc1C(=O)Nc1ccc(C(F)(C(F)(F)F)C(F)(F)F)cc1Cl [compound 46]
[1]; [5]
  Insecticidal effect, Test Example 1: A (100)
[2]; [6]
  Insecticidal effect, Test Example 3: B (99-90)

## Cc1cccc(Cl)c1NC(=O)c1cccc([N+](=O)[O-])c1C(=O)NC(C)C [compound 666]
[1]
  Insecticidal effect on diamondback moth (Test Example 1), judged grade: A (100)
[2]
  Insecticidal effect on rice leafroller (Test Example 3), judged grade: D (79-50)

## Cc1c(NC(=O)c2c(Br)cccc2C(=O)NC(C)C)ccc(OC(F)F)c1Cl [compound 332]
[1]; [5]
  Insecticidal effect, Test Example 1: A (100)
[2]; [6]
  Insecticidal effect, Test Example 3: A (100)

## Cc1cc(C(F)(F)C(F)(F)F)ccc1NC(=O)c1cccc(Cl)c1C(=O)NCc1ccncc1 [compound 1394]
[1]; [3]
  Insecticidal effect, Test Example 1: A (100)
[2]; [4]
  Insecticidal effect, Test Example 3: A (100)

## Cc1ccc(NC(=O)c2cccc([N+](=O)[O-])c2C(=O)NC(C)C)c(Cl)c1 [compound 656]
[1]
  Insecticidal effect on diamondback moth (Test Example 1), judged grade: A (100)
[2]
  Insecticidal effect on rice leafroller (Test Example 3), judged grade: A (100)

## Cc1cc(NC(=O)c2cccc([N+](=O)[O-])c2C(=O)NC(C)C)ccc1Br [compound 680]
[1]
  Insecticidal effect on diamondback moth (Test Example 1), judged grade: A (100)
[2]
  Insecticidal effect on rice leafroller (Test Example 3), judged grade: D (79-50)

## Cc1cc(OC(F)F)ccc1NC(=O)c1cccc([N+](=O)[O-])c1C(=O)NC1CCCC1 [compound 856]
[1]
  Insecticidal effect on diamondback moth (Test Example 1), judged grade: A (100)
[2]
  Insecticidal effect on rice leafroller (Test Example 3), judged grade: D (79-50)

## Cc1cc(OC(F)F)ccc1NC(=O)c1cccc([N+](=O)[O-])c1C(=O)NC(C)c1ccccc1 (stereo not shown) [compound 879]
[1]
  Insecticidal effect on diamondback moth (Test Example 1), judged grade: A (100)
[2]
  Insecticidal effect on rice leafroller (Test Example 3), judged grade: A (100)

## CC(C)NC(=O)c1cccc(Br)c1C(=O)Nc1ccc(C(F)(F)F)cc1Cl [compound 315]
[1]; [5]
  Insecticidal effect, Test Example 1: A (100)
[2]; [6]
  Insecticidal effect, Test Example 3: A (100)

## Cc1ccc(Cl)cc1NC(=O)c1ccc(Cl)cc1C(=O)NC(C)C [compound 178]
[1]; [5]
  Insecticidal effect, Test Example 1: A (100)
[2]; [6]
  Insecticidal effect, Test Example 3: A (100)

## Cc1cc(C(F)(F)C(F)(F)F)ccc1NC(=O)c1cccc(Cl)c1C(=O)NCCc1ccc(Cl)cc1 [compound 1360]
[1]; [3]
  Insecticidal effect, Test Example 1: A (100)
[2]; [4]
  Insecticidal effect, Test Example 3: C (89-80)

## CC(C)NC(=O)c1cccc(Cl)c1C(=O)Nc1ccc(C(F)(F)F)cc1Cl [compound 220]
[1]; [5]
  Insecticidal effect, Test Example 1: A (100)
[2]; [6]
  Insecticidal effect, Test Example 3: A (100)

## Cc1ccc(Cl)cc1NC(=O)c1c(OC(F)F)cccc1C(=O)NC(C)C [compound 778]
[1]
  Insecticidal effect on diamondback moth (Test Example 1), judged grade: A (100)
[2]
  Insecticidal effect on rice leafroller (Test Example 3), judged grade: A (100)

## CC(C)NC(=O)c1cccc(Cl)c1C(=O)Nc1ccc(OC(F)(F)F)cc1Br [compound 235]
[1]; [5]
  Insecticidal effect, Test Example 1: A (100)
[2]; [6]
  Insecticidal effect, Test Example 3: A (100)

## Cc1cc(Oc2ccc(C(F)(F)F)cn2)ccc1NC(=O)c1c(Br)cccc1C(=O)NC(C)C [compound 335]
[1]; [5]
  Insecticidal effect, Test Example 1: A (100)
[2]; [6]
  Insecticidal effect, Test Example 3: B (99-90)

## Cc1cc(OC(F)(F)Br)ccc1NC(=O)c1c(F)cccc1C(=O)NC(C)C [compound 565]
[1]
  Insecticidal effect on diamondback moth (Test Example 1), judged grade: A (100)
[2]
  Insecticidal effect on rice leafroller (Test Example 3), judged grade: A (100)

## CCN(CC)C(=O)c1c(C(=O)Nc2ccc(OC(F)(F)F)cc2)cccc1[N+](=O)[O-] [compound 1136]
[1]; [3]
  Insecticidal effect, Test Example 1: A (100)
[2]; [4]
  Insecticidal effect, Test Example 3: A (100)

## Cc1cc(OC(F)(F)Br)ccc1NC(=O)c1c(Br)cccc1C(=O)NC(C)C [compound 327]
[1]; [5]
  Insecticidal effect, Test Example 1: A (100)
[2]; [6]
  Insecticidal effect, Test Example 3: A (100)

## Cc1cc(OC(F)F)ccc1NC(=O)c1ccc(F)cc1C(=O)NC(C)C [compound 531]
[1]
  Insecticidal effect on diamondback moth (Test Example 1), judged grade: A (100)
[2]
  Insecticidal effect on rice leafroller (Test Example 3), judged grade: A (100)

## Cc1cc(C(F)(F)C(F)(F)F)ccc1NC(=O)c1cccc(I)c1C(=O)NC1CCCCC1 [compound 993]
[1]; [3]
  Insecticidal effect, Test Example 1: A (100)
[2]; [4]
  Insecticidal effect, Test Example 3: A (100)

## CCNC(=O)c1c(F)cccc1C(=O)Nc1ccc(C(F)(F)C(F)(F)F)cc1F [compound 1510]
[1]
  Insecticidal effect (Test Example 1), judged from mortality: A (100)
[2]; [6]
  Insecticidal effect (Test Example 3), judged from mortality: A (100)

## CCC(C)NC(=O)c1c(C(=O)Nc2ccc(OC(F)F)cc2C)cccc1[N+](=O)[O-] (stereo not shown) [compound 839]
[1]
  Insecticidal effect on diamondback moth (Test Example 1), judged grade: A (100)
[2]
  Insecticidal effect on rice leafroller (Test Example 3), judged grade: C (89-80)

## CC(C)NC(=O)c1cccc([N+](=O)[O-])c1C(=O)Nc1ccc(C(F)(F)F)cc1Cl [compound 740]
[1]
  Insecticidal effect on diamondback moth (Test Example 1), judged grade: A (100)
[2]
  Insecticidal effect on rice leafroller (Test Example 3), judged grade: A (100)

## Cc1cc(C(F)(F)C(F)(F)F)ccc1NC(=O)c1c(Cl)cccc1C(=O)N[C@H](C)CO [compound 1461]
[1]
  Insecticidal effect (Test Example 1), judged from mortality: A (100)
[2]; [6]
  Insecticidal effect (Test Example 3), judged from mortality: A (100)

## CSc1ccc(NC(=O)c2c(Br)cccc2C(=O)NC(C)C)c(C)c1 [compound 333]
[1]; [5]
  Insecticidal effect, Test Example 1: A (100)
[2]; [6]
  Insecticidal effect, Test Example 3: D (79-50)

## C#CC(C)(C)NC(=O)c1c(Cl)cccc1C(=O)Nc1ccc(OC(F)F)cc1C [compound 1588]
[1]
  Insecticidal effect (Test Example 1), judged from mortality: A (100)
[2]; [6]
  Insecticidal effect (Test Example 3), judged from mortality: A (100)

## Cc1cc(Cl)ccc1NC(=O)c1ccccc1C(=O)N(C)C(C)C [compound 826]
[1]
  Insecticidal effect on diamondback moth (Test Example 1), judged grade: A (100)
[2]
  Insecticidal effect on rice leafroller (Test Example 3), judged grade: A (100)

## Cc1cccc(NC(=O)c2c(Br)cccc2C(=O)NC(C)C)c1C [compound 303]
[1]; [5]
  Insecticidal effect, Test Example 1: A (100)
[2]; [6]
  Insecticidal effect, Test Example 3: D (79-50)

## CCC(COC)NC(=O)c1cccc(I)c1C(=O)Nc1ccc(C(F)(F)C(F)(F)F)cc1C (stereo not shown) [compound 1014]
[1]; [3]
  Insecticidal effect, Test Example 1: A (100)
[2]; [4]
  Insecticidal effect, Test Example 3: A (100)

## Cc1cc(OC(F)(F)F)ccc1NC(=O)c1c(I)cccc1C(=O)NC(C)c1ccccn1 (stereo not shown) [compound 1776]
[1]
  Insecticidal effect (Test Example 1), judged from mortality: A (100)
[2]; [6]
  Insecticidal effect (Test Example 3), judged from mortality: A (100)

## Cc1cc(OC(F)(F)C(F)(F)Br)ccc1NC(=O)c1c(F)cccc1C(=O)NC(C)C [compound 554]
[1]
  Insecticidal effect on diamondback moth (Test Example 1), judged grade: A (100)
[2]
  Insecticidal effect on rice leafroller (Test Example 3), judged grade: A (100)

## CCNC(=O)c1c(Cl)cccc1C(=O)Nc1ccc(C(F)(F)C(F)(F)F)cc1F [compound 1488]
[1]
  Insecticidal effect (Test Example 1), judged from mortality: A (100)
[2]; [6]
  Insecticidal effect (Test Example 3), judged from mortality: A (100)

## CC(C)NC(=O)c1cccc(I)c1C(=O)Nc1ccc(Cl)cc1 [compound 411]
[1]; [5]
  Insecticidal effect, Test Example 1: A (100)
[2]; [6]
  Insecticidal effect, Test Example 3: A (100)

## CNC(=O)c1c(C(=O)Nc2ccc(OC(F)F)cc2C)cccc1[N+](=O)[O-] [compound 4]
[1]; [5]
  Insecticidal effect, Test Example 1: A (100)
[2]; [6]
  Insecticidal effect, Test Example 3: D (79-50)

## CC(C)(C)NC(=O)c1c(I)cccc1C(=O)Nc1ccc(C(F)(C(F)(F)F)C(F)(F)F)c2c1CCCC2 [compound 1727]
[1]
  Insecticidal effect (Test Example 1), judged from mortality: A (100)
[2]; [6]
  Insecticidal effect (Test Example 3), judged from mortality: A (100)

## CCCN(CC)C(=O)c1c(I)cccc1C(=O)Nc1ccc(OC(F)F)cc1C [compound 1575]
[1]
  Insecticidal effect (Test Example 1), judged from mortality: A (100)
[2]; [6]
  Insecticidal effect (Test Example 3), judged from mortality: A (100)

## CC(C)CNC(=O)c1ccccc1C(=O)Nc1ccc(C(F)(F)F)cc1 [compound 833]
[1]
  Insecticidal effect on diamondback moth (Test Example 1), judged grade: A (100)
[2]
  Insecticidal effect on rice leafroller (Test Example 3), judged grade: D (79-50)

## CC(C)(C)NC(=O)c1c(I)cccc1C(=O)Nc1c(Cl)cc(Cl)c2c1OC(F)(F)O2 [compound 1748]
[1]
  Insecticidal effect (Test Example 1), judged from mortality: A (100)
[2]; [6]
  Insecticidal effect (Test Example 3), judged from mortality: A (100)

## COCCNC(=O)c1c(C(=O)Nc2ccc(OC(F)F)cc2C)cccc1[N+](=O)[O-] [compound 872]
[1]
  Insecticidal effect on diamondback moth (Test Example 1), judged grade: A (100)
[2]
  Insecticidal effect on rice leafroller (Test Example 3), judged grade: C (89-80)

## Cc1ccc(Cl)cc1NC(=O)c1cccc(C(F)(F)F)c1C(=O)NC(C)C [compound 755]
[1]
  Insecticidal effect on diamondback moth (Test Example 1), judged grade: A (100)
[2]
  Insecticidal effect on rice leafroller (Test Example 3), judged grade: A (100)

## Cc1cc(OC(F)F)ccc1NC(=O)c1cccc(C)c1C(=O)NC(C)C [compound 751]
[1]
  Insecticidal effect on diamondback moth (Test Example 1), judged grade: A (100)
[2]
  Insecticidal effect on rice leafroller (Test Example 3), judged grade: A (100)

## CC(C)NC(=O)c1ccccc1C(=O)Nc1ccc(SC(F)(F)F)cc1 [compound 995]
[1]; [3]
  Insecticidal effect, Test Example 1: A (100)
[2]; [4]
  Insecticidal effect, Test Example 3: A (100)

## CSCOc1ccc(NC(=O)c2ccccc2C(=O)NC(C)C)c(C)c1 [compound 70]
[1]; [5]
  Insecticidal effect, Test Example 1: A (100)
[2]; [6]
  Insecticidal effect, Test Example 3: A (100)

## Cc1ccc(Cl)cc1NC(=O)c1cccc(OC(F)F)c1C(=O)NC(C)C [compound 773]
[1]
  Insecticidal effect on diamondback moth (Test Example 1), judged grade: A (100)
[2]
  Insecticidal effect on rice leafroller (Test Example 3), judged grade: A (100)

## CC(C)NC(=O)c1c(F)cccc1C(=O)Nc1ccc(SC(F)F)cc1 [compound 477]
[1]
  Insecticidal effect on diamondback moth (Test Example 1), judged grade: A (100)
[2]
  Insecticidal effect on rice leafroller (Test Example 3), judged grade: C (89-80)
